This is an account of results in patent US20100210649A1, “PYRIDAZINONES AND FURAN-CONTAINING COMPOUNDS” (Sloan-Kettering Institute for Cancer Research, priority 2006, published 2010).

Like-named read-outs stand apart in the source and are kept apart here.

The inhibition is the change of the read-out against control, counted positive when it falls.

Assay type in all cases: cell-based, human
In one assay the test system is H1975. Put plainly: Non Small Cell Lung Cancer proliferation assay (Alamar Blue reduction), H1975. The following applies: primary screening, 10 μM compound in 1% DMSO (v/v); for inhibition at 10 µM: Homo sapiens, NCI-H1975. Here is the method:
(§1) These cells have a doubling time of 1-2 days. All cell types are adherent and grow in colonies. The cells should be kept at a density between 50,000 cells/mL -500,000 cells/mL to provide for optimum growth and adequate nutrition. The cell line should be maintained at 37° C. in a humidified atmosphere with 5% CO2 in a sterile cell culture incubator.
(§2) Non Small Cell Lung Cancer Proliferation Assay.
(§3) High Controls for this assay are made by treating Non Small Cell Lung Cancer cells with 5 ul of 10% DMSO. [Final concentration in this assay is 1% DMSO].
(§4) Important Note: All compounds for testing in this assay should be done at the final concentration of 1% DMSO.
(§5) After addition, the cells are placed in cell culture incubator at 37° C. for 48 hours for complete treatment.
(§6) After drug treatment, cytotoxicity is measured by Alamar Blue reduction.
(§7) The cells are incubated for 48 hours at 37° C. to complete the Alamar Blue reduction.
(§8) The final step in the assay is to measure the amount of Alamar Blue reduction. […] The Alamar Blue fluorescence is measured at an excitation of 530 nm and emission of 590 nm.
(§9) For the NSCLC project, the cell based assay was screened against a small molecule library of approximately 200,000 compounds. The compound library is stored in our automated robotic freezer (Biophile) at −20° C. in 100% DMSO. Compound freeze and thaw cycles are kept to a minimum. […] This assay was performed on a fully automated linear track robotic platform (CRS F3 Robot System, Thermo Electron Corp., Ontario, Canada) utilizing several integrated peripherals for plate handling, liquid dispensing, and readout detection. […] The microplates are then placed at 37° C. for 48 hours to complete treatment of cells with compounds. Next, 5 ul of alamar blue was added using a liquid dispenser (Flexprop Precision Dispenser, Perkin Elmer, Mass., USA) and incubated for 48 hours at 37° C. The alamar blue prompt fluorescence was measured on Victor V (Victor^3 V, Perkin Elmer, Mass., USA) and output data files were loaded into ORIS (Oncology Research Informatics System, MSKCC, NY, USA), a screening data acquisition and analysis platform.
(§10) The dose response studies were done with the following standard procedure. First, the cells were counted and dispensed at 250 cells/well into 384-well microplates with compound. The cells were incubated for 48 hours at 37 C to complete treatment, and then alamar blue was added for an additional 48 hours. Finally, alamar blue reduction was measured and the data was loaded into ORIS, our data screening acquisition platform.
(Alamar Blue is a resazurin reagent that responds to reducing activity.)

For the next assay, the system named is H3255. The assay can be described thus: Non Small Cell Lung Cancer proliferation assay (Alamar Blue reduction), H3255. The settings on record: primary screening, 10 μM compound in 1% DMSO (v/v); for inhibition at 10 µM: Homo sapiens, NCI-H3255. On the procedure: as §1, §2, §3, §4, §5, §6, §7, §8, §9, §10
Another assay concerns H2030. The assay can be described thus: Non Small Cell Lung Cancer proliferation assay (Alamar Blue reduction), H2030. The following applies: primary screening, 10 μM compound in 1% DMSO (v/v); for inhibition at 10 µM: Homo sapiens, NCI-H2030. Here is the method:
as §1, §2, §3, §4, §5, §6, §7, §8, §9, §10

In the next assay the test system is H1650. Put plainly: Non Small Cell Lung Cancer proliferation assay (Alamar Blue reduction), H1650. The following applies: primary screening, 10 μM compound in 1% DMSO (v/v); for inhibition at 10 µM: Homo sapiens, NCI-H1650. Here is the method: as §1, §2, §3, §4, §5, §6, §7, §8, §9, §10
[1] abbreviates: read-out: percentage inhibition H1975.
[2] abbreviates: read-out: percentage inhibition H3255.
The mark [3] stands for this setting: read-out: percentage inhibition H2030.
Where [4] appears, read: read-out: percentage inhibition H1650.
Setting [5] is: H1975, read-out: PRIMARY HTS [%] H1975 (percentage inhibition).
The mark [6] stands for this setting: H3255, read-out: PRIMARY HTS [%] H3255 (percentage inhibition).
Where [7] appears, read: H2030, read-out: PRIMARY HTS [%] H2030 (percentage inhibition).
Setting [8] is: H1650, read-out: PRIMARY HTS [%] H1650 (percentage inhibition).

Turning to `Cc1c(C(=O)c2ccccc2)nn(-c2ccccc2Cl)c(=N)c1C#N` [compound 227247], the inhibition at 10 µM in the assay on H1975 (setting [1]) is -9%; with H3255 (setting [2]), 11%; with H2030 (setting [3]) it was -1%; with H1650 (setting [4]), -16%.
Consider `CC(=O)N(C(C)=O)c1c(Cl)cnn(-c2ccccc2)c1=O` [compound 187116], for which the inhibition at 10 µM in the assay on H1975 (setting [1]) was 90%; in the assay with H3255 (setting [2]), 27%; in the assay with H2030 (setting [3]) it was 4%; with H1650 (setting [4]), 31%.
For the compound `Cc1ccc(C(C)C)c(OCC(=O)Oc2ccc(=O)n(-c3ccccc3)n2)c1` [compound 228706], the inhibition at 10 µM is -11% in the assay with H1975 (setting [1]), -25% in the assay with H3255 (setting [2]), 5% in the assay with H2030 (setting [3]) and -16% in the assay on H1650 (setting [4]).
The corresponding values for `O=c1c(SCc2ccccc2)c(N2CCCCC2)cnn1-c1ccccc1` [compound 195989] are 35%, -27%, 6% and 21%.
As for `CN(C(=O)c1ccc([N+](=O)[O-])o1)c1ccccc1` [compound 104003], the inhibition at 10 µM was 18% in the assay on H1975 (setting [5]), 5% with H3255 (setting [6]), 0% in the assay on H2030 (setting [7]) and -3% with H1650 (setting [8]).
The corresponding values for `O=C(Nc1ccc(NC(=O)c2ccc(Cl)cc2Cl)cc1)c1ccco1` [compound 72456] are 9%, 7%, 8% and 12%.
For the compound `O=c1c(SCc2ccc(Cl)cc2)c(SC2CCCCO2)cnn1-c1ccccc1` (stereo not shown) [compound 195063], the inhibition at 10 µM is 34% in the assay with H1975 (setting [1]), -6% with H3255 (setting [2]), -6% in the assay on H2030 (setting [3]) and 22% in the assay with H1650 (setting [4]).
Turning to `CN(C)c1c(Cl)cnn(-c2ccccc2)c1=O` [compound 103911], the inhibition at 10 µM is -12% in the assay on H1975 (setting [1]), -3% in the assay on H3255 (setting [2]), -5% with H2030 (setting [3]) and -7% with H1650 (setting [4]).
In the same order, the values of `O=c1c(SCc2ccc(Cl)cc2Cl)c(SCc2ccc(Cl)cc2Cl)cnn1-c1ccccc1` [compound 208619] are 1%, -19%, -12% and -4%.
The corresponding values for `COc1ccc(-n2nc(Cl)ccc2=O)cc1` [compound 194491] are 0%, -32%, -12% and -2%.
Consider `CCc1c(C(=O)OC)nn(-c2ccc(C)cc2)c(=O)c1C#N` [compound 193326], for which the inhibition at 10 µM in the assay with H1975 (setting [1]) is -1%; in the assay on H3255 (setting [2]), -49%; with H2030 (setting [3]), -9%; with H1650 (setting [4]) it was -2%.
In the same order, the values of `O=c1ccc(Cl)nn1-c1ccc(Br)cc1` [compound 222922] are 3%, -7%, -30% and -20%.
With `Cc1cccc(N2CCN(Cc3ccc([N+](=O)[O-])o3)CC2)c1C` [compound 101070], the inhibition at 10 µM is -18% in the assay with H1975 (setting [5]), 1% in the assay on H3255 (setting [6]), 5% in the assay on H2030 (setting [7]) and 2% in the assay with H1650 (setting [8]).
In the same order, the values of `COc1ccc(N2CCN(Cc3ccc([N+](=O)[O-])o3)CC2)cc1` [compound 100588] are -14%, 4%, 5% and -5%.
The corresponding values for `Cc1cccc(NC(=O)c2cc3cc([N+](=O)[O-])ccc3o2)c1` [compound 84487] are -5%, 3%, 5% and 27%.
With `CCOC(=O)N(CCOc1cnn(-c2ccccc2)c(=O)c1)C(=O)OCC` [compound 199761], the inhibition at 10 µM was -25% in the assay on H1975 (setting [1]), 41% in the assay on H3255 (setting [2]), 6% with H2030 (setting [3]) and -7% with H1650 (setting [4]).
The corresponding values for `O=c1c(SCc2ccccc2)c(SC2CCCCO2)cnn1-c1ccccc1` (stereo not shown) [compound 182828] are -5%, 18%, -8% and 25%.
For `O=C(Nc1ccc(N2CCN(Cc3ccccc3Cl)CC2)cc1)c1ccco1` [compound 92553], the inhibition at 10 µM in the assay on H1975 (setting [5]) was -3%; in the assay with H3255 (setting [6]), 1%; in the assay on H2030 (setting [7]), 5%; in the assay with H1650 (setting [8]), 2%.
For `CCN(Cc1ccccc1)C(=O)c1ccc([N+](=O)[O-])o1` [compound 78535], the inhibition at 10 µM is -2% in the assay with H1975 (setting [5]), 8% in the assay on H3255 (setting [6]), 26% with H2030 (setting [7]) and 41% in the assay with H1650 (setting [8]).
For the compound `O=C(COc1cnn(-c2ccccc2)c(=O)c1Cl)c1ccccc1` [compound 199759], the inhibition at 10 µM was 36% in the assay on H1975 (setting [1]), 66% in the assay on H3255 (setting [2]), 9% in the assay with H2030 (setting [3]) and 16% with H1650 (setting [4]).
For `Cc1ccc(-n2nc(C#N)c(-c3ccccc3)c(C#N)c2=O)cc1` [compound 224358], the inhibition at 10 µM in the assay on H1975 (setting [1]) was -9%; in the assay on H3255 (setting [2]) it was -14%; in the assay with H2030 (setting [3]), -2%; in the assay on H1650 (setting [4]) it was -4%.
`O=c1c2c(cnn1-c1ccccc1)SC(c1ccccc1)S2` (stereo not shown) [compound 182826]: the “percentage inhibition H1975” value with H1975 was found to be 12%. Also, in the assay with H3255, the “percentage inhibition H3255” value was −13%. Moreover, the “percentage inhibition H2030” value with H2030 is listed as −11%. Moreover, the “percentage inhibition H1650” value in the assay on H1650 is listed as 13%.
With `O=c1c2c(cnn1-c1ccccc1)SCCS2` [compound 195988], the inhibition at 10 µM in the assay with H1975 (setting [1]) was -7%; with H3255 (setting [2]), -18%; with H2030 (setting [3]), 7%; with H1650 (setting [4]), 13%.
Consider `Cc1ccc(C(=O)Nc2cc([N+](=O)[O-])ccc2C)o1` [compound 66776], for which the inhibition at 10 µM in the assay on H1975 (setting [5]) is 2%; in the assay with H3255 (setting [6]), 2%; in the assay on H2030 (setting [7]), -3%; in the assay on H1650 (setting [8]) it was 13%.
On to `CSc1cnn(-c2ccccc2)c(=O)c1Cl` [compound 104185], for which the inhibition at 10 µM with H1975 (setting [1]) is 22%; with H3255 (setting [2]) it was 1%; in the assay on H2030 (setting [3]) it was -2%; in the assay on H1650 (setting [4]), -9%.
The corresponding values for `COc1ccc(-n2nc(C(=O)c3cccs3)cc(-c3nc4ccccc4[nH]3)c2=N)cc1` [compound 186925] are 3%, -28%, 1% and 6%.
`O=[N+]([O-])c1ccc(CN2CCN(Cc3ccccc3)CC2)o1` [compound 100507]: the inhibition at 10 µM is -15% in the assay with H1975 (setting [5]), 1% with H3255 (setting [6]), 7% in the assay with H2030 (setting [7]) and -3% in the assay with H1650 (setting [8]).
Consider `N=c1c(-c2nc3ccccc3[nH]2)cc(C(=O)c2cccs2)nn1-c1ccc(Cl)cc1` [compound 186017], for which the inhibition at 10 µM in the assay on H1975 (setting [1]) was -6%; with H3255 (setting [2]), -13%; with H2030 (setting [3]), -4%; with H1650 (setting [4]) it was -12%.
